Data: patent US20180010188A1, “METHOD FOR DETECTING NONSENSE-MEDIATED RNA DECAY” (The Regents of the University of California, priority 2016, published 2018)

Tests used:
Xbp1 splicing = Xbp1 splicing (ER stress) by RT-PCR / Xbp1s level; format: cell-based, mouse
Description: We investigated another consequence of thapsigargin treatment, ER stress, for its possible association with NMD inhibition. Because thapsigargin-induced NMD inhibition occurred as early as 1 hour post-treatment, we examined cellular stress levels by measuring the splicing activity of X-box binding protein 1 (Xbp1). Xbp1 splicing rapidly responds to ER stress. As a part of the unfolded protein response (UPR) triggered by ER stress, the serine/threonine protein kinase/endoribonuclease inositol-requiring enzyme 1 (IRE1α) oligomerizes and activates its ribonuclease activity through trans-autophosphorylation (Rubio et al., 2011. J Cell Biol 193: 171-184; Samali et al., 2010. Int J Cell Biol 2010: 830307; van Schadewijk et al., 2012. Cell Stress Chaperones 17: 275-279; Hetz C. 2012. Nat Rev Mol Cell Biol 13: 89-102). Activated IRE1α excises a 26-nt intron of Xbp1 mRNA, resulting in a shorter isoform (Xbp1s) that encodes a potent transcriptional activator for the expression of chaperones. RT-PCR with primers flanking the 26-nt intron detected Xbp1 splicing at 1 hour after thapsigargin treatment (FIG. 3A). […] Since IRE1α is targeted by NMD (Karam et al., 2015. EMBO Rep 16: 599-609; Oren et al. 2014. EMBO Mol Med 6: 685-701), the Xbp1 intron excision could have been due to thapsigargin-induced NMD inhibition. […] Nevertheless, feedback between these two pathways may have occurred in the later phase (see below).
(§1) Neuro-2a (N2a) cells were maintained in N2a complete media consisting of L-glutamine-free Dulbecco's modified Eagle's medium (DMEM), 10% FBS and 1× GlutaMAX at 37° C. Thapsigargin (VWR, cat. no. 89161-410), ionomycin (Fisher Scientific, cat. no. AG-CN2-0416-M001) and ouabain octahydrate (Fisher Scientific, cat. no. 80055-364) were dissolved in DMSO and stored at −80° C. […]
Trizol (Life Technologies, cat. no. 15596-018) was directly added to the cells or mouse brain tissues to extract total RNA following the Trizol Reagent standard protocol. […] RNA concentrations were measured using a Nanodrop 2000c (Thermo Fisher). […]

Bip transcript = Bip transcript levels as reporter of ATF6α activity; format: cell-based, mouse
Source text: Perk knockdown attenuated thapsigargin-induced Xpb1s (FIG. 4E) probably due to the restoration of NMD activity and because NMD inhibits IRE1α to splice Xbp1 (Oren et al. 2014. EMBO Mol Med 6: 685-701; Karam et al., 2015. EMBO Rep 16: 599-609). […] The Xbp1s level in the thapsigargin-treated siPerk cells was still 6 to 8 fold higher than in DMSO-treated cells, indicative of potent IRE1a activity. We also examined Bip transcript levels as a reporter of ATF6α activity (FIG. 4F). […] In summary, in PERK-deficient cells, thapsigargin continued to activate IREα and ATF6α but no longer inhibited NMD.
as §1
Trizol (Life Technologies, cat. no. 15596-018) was directly added to the cells or mouse brain tissues to extract total RNA following the Trizol Reagent standard protocol. […] RNA concentrations were measured using a Nanodrop 2000c (Thermo Fisher). […] Relative expression (fold changes) was calculated using the ΔΔCt method. […]

Row | SMILES | thapsigargin-induced Xbp1s (Xbp1 splicing; thapsigargin plus GSK2606414) | Bip transcripts (Bip transcript; thapsigargin plus GSK2606414) | time at which Xbp1 splicing was detected (Xbp1 splicing; 0.2 μM thapsigargin, N2a cells) [h] | concentration at which Xbp1 intron excision occurred (Xbp1 splicing; N2a cells, 5 hours post-treatment) [µM] | Bip transcript levels (Bip transcript; thapsigargin treatment, maintained with siPerk)
1 | Cn1cc(-c2ccc3c(c2)CCN3C(=O)Cc2cccc(C(F)(F)F)c2)c2c(N)ncnc21 [GSK2606414] | attenuating | did not down-regulate |  |  | 
2 | C/C=C(/C)C(=O)O[C@H]1C(C)=C2[C@H]([C@@H]1OC(=O)CCCCCCC)[C@@](C)(OC(C)=O)C[C@H](OC(=O)CCC)[C@@]1(O)[C@H]2OC(=O)[C@@]1(C)O [thapsigargin] |  |  | 1 | 0.01 | significantly boosted
